{"source": "patent US8377870B2", "about": "“Antimicrobial aqueous solution and its preparation method” (Dentrochemical Co., Ltd., priority 2008, dated 2013)", "key": {"[1]": {"system": "Pseudomonas", "assay": "successive 2-fold dilution in test tubes, visual observation of growth of bacteria", "format": "cell-based", "parameters": "key to growth of bacteria, Dilution rate 0 / growth of bacteria, Dilution rate ×2 / growth of bacteria, Dilution rate ×4: visually observing a growth of bacteria, and the observation result is shown by marks of + and −; visually observing a growth of bacteria, and the observation result is shown by marks of + and −", "protocol": "Further, successive 2-fold dilutions […] media of ½ concentration; 5 ml of the applicable diluted solution at each fold was separately poured into dual test tubes, for preparation; while simultaneously preparing diluted solutions of ε-polylysine only in test tubes as a comparative test, in the same manner as the above; and one droplet of an inoculum of Pseudomonas was inoculated into each diluted solution, followed by shaking and culturing at 37° C. for 18 hours. Judgment of each activity was conducted by visually observing a growth of bacteria, and the observation result is shown by marks of + and −."}, "[2]": {"system": "Pseudomonas aeruginosa, JCM 5961", "assay": "growth curve of Pseudomonas by optical density measuring method, liquid culture (½ TS medium)", "format": "cell-based", "protocol": "100 mg of a sucrose monolaurate (Ryoto Sugar Ester L1695 produced by Mitsubishi-Kagaku Foods Corporation) was dissolved in 1 liter of a sterilized deionized water, the resultant solution was heated to 50° C., 50 mg of monolaurin (Taiyo Kagaku Co., Ltd.) was added thereinto followed by stirring, the dissolution thereof was then confirmed, and the resultant solution was subsequently cooled down to a room temperature. Added into the solution was 50 mg of an ε-polylysine product (50% dextrin powder produced by Chisso Corporation; containing 50% of ε-polylysine bromate and 50% of dextrin), followed by dissolution thereof, to obtain an antimicrobial aqueous solution. This antimicrobial aqueous solution contained 25 μg/ml of the ε-polylysine, 50 μg/ml of the monolaurin, and 100 μg/ml of the sucrose monolaurate. Here, used as the monolaurin was that recrystallized by means of hexane, because a monolaurin of high purity was required. […]"}, "[3]": {"system": "bacteria and fungi", "assay": "growth of bacteria and fungi with diluted ε-polylysine by itself", "format": "cell-based", "conditions": "ε-polylysine by itself diluted down to about 6.25 μg/ml"}, "[4]": {"conditions": "acute toxicity; cited from earlier work"}, "[5]": {"conditions": "37° C. for 18 hours, start: ε-polylysine only 50 μg/ml, or ε-polylysine 8 μg/ml (fix) + diglycerol monolaurate 50 μg/ml"}}}
{"substance": "ε-polylysine", "values": [{"measurement": "growth of bacteria, Dilution rate 0", "setting": "[1]; [5]", "value": "−"}, {"measurement": "growth of bacteria, Dilution rate ×2", "setting": "[1]; [5]", "value": "−"}, {"measurement": "growth of bacteria, Dilution rate ×4", "setting": "[1]; [5]", "value": "−"}, {"measurement": "dilutions in which growth of bacteria was found", "setting": "[1]; ε-polylysine only, start 50 μg/ml, successive 2-fold dilution", "value": "≥ 8", "unit": "fold"}, {"measurement": "growth of bacteria (growth curve, FIG. 2)", "setting": "[2]; 10 μg/ml of each component named in the sample code, compared with control without additive", "value": "growth of bacteria to the similar level as a control"}, {"measurement": "lapse of time after which growth of bacteria set in (growth curve, FIG. 1)", "setting": "[2]; sample codes give μg/ml (M monolaurin, PL ε-polylysine, S sucrose monolaurate)", "value": 12, "unit": "h"}, {"measurement": "effect on growth of bacteria and fungi", "setting": "[3]", "value": "promote growth of bacteria and fungi"}, {"measurement": "LD50", "setting": "[4]", "value": "> 10000", "unit": "mg/kg"}]}
